Laboratory results from patent US20240374546A1, “USES AND METHODS FOR PROMOTING INCREASED MITOCHONDRIAL MASS AND FUNCTION” (Brightseed, Inc., priority 2022, published 2024).

Legend:
HNF4α [1] = target: T1, HNF4α (Homo sapiens, UniProt P41235); settings: cited from earlier work
T1 sequence (P41235 1-474): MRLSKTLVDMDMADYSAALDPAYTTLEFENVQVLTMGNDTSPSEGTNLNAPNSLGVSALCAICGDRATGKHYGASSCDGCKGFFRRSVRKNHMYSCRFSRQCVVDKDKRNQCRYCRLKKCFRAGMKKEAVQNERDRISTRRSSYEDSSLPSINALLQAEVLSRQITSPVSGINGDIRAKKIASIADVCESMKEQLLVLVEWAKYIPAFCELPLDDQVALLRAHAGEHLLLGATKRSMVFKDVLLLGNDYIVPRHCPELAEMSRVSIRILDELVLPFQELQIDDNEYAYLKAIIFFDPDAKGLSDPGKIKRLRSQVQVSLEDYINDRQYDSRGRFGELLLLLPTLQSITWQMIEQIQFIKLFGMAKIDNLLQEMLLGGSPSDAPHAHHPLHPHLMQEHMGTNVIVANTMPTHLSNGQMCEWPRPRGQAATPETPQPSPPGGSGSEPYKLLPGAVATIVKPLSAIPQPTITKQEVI

palmitate-loaded cells = assay: Fat clearance from palmitate-loaded cells; type: cell-based; settings: in vitro
HNF4α [2] = target: T1, HNF4α; assay: Cell-based human insulin promoter reporter assay sensitive to HNF4α activity
Source text: HNF4α is a nuclear receptor transcription factor that controls the expression of downstream genes that are important in multiple aspects of cellular metabolism. The classical view of HNF4α has been that its ligand binding pocket (LBP) is constitutively occupied by a fatty acid that plays a structural rather than regulatory role. However, it has been shown recently that the fatty acids in the HNF4α LBP are exchangeable in the context of full length HNF4α, particularly inside the cell. […] Using the assay in high-throughput screening, it was discovered HNF4α antagonists and more recently agonists. […] Previously, it was shown that intraperitoneal (IP) administration of NCT reversed hepatic steatosis in obese mice fed a high fat diet through a previously unsuspected pathway involving regulation by HNF4α of dihydroceramide synthesis.

HNF4α agonist activity (HNF4α [2]) | Structure (SMILES) | HNF4α activator activity of known drugs (HNF4α [1]) | fat clearance from palmitate-loaded cells (palmitate-loaded cells)
 | CCN(CCCc1ccccc1)CCCc1ccccc1 [alverine] | weak HNF4α activators | 
 | CC(Cc1cccc(C(F)(F)F)c1)NCCOC(=O)c1ccccc1 (stereo not shown) [benfluorex] | weak HNF4α activators | 
strong HNF4α agonists | COc1cc(/C=C/C(=O)NCCc2ccc(O)cc2)ccc1O [NFT, N-transferuloyltyramine] |  | induced fat clearance
